According to US20080125432A1 (Devgen NV, priority 2004, published 2008):

melting point [°C]	SMILES
166 to 167.4	COc1ccccc1Nc1nc(C)c(C(=O)NCc2ccc3c(c2)OCO3)s1 [Compound 162, 2-(2-methoxy-phenylamino)-4-methyl-thiazole-5-carboxylic acid (benzo[1,3]dioxol-5-ylmethyl)-amide]
144.4 to 149.2	COc1ccccc1Nc1nc(C)c(C(=O)N2CC=C(c3ccc(F)cc3)CC2)s1 [Compound 163, [4-(4-fluoro-phenyl)-3,6-dihydro-2H-pyridin-1-yl]-[2-(2-methoxy-phenylamino)-4-methyl-thiazol-5-yl]-methanone]
146.2 to 148	COc1ccccc1Nc1nc(C)c(C(=O)NC2CCc3ccccc32)s1 (stereo not shown) [Compound 164, 2-(2-methoxy-phenylamino)-4-methyl-thiazole-5-carboxylic acid indan-1-ylamide]
211.3 to 214.4	COc1ccccc1Nc1nc(C)c(C(=O)Nc2ccc(Cn3cccn3)cc2)s1 [Compound 166, 2-(2-methoxy-phenylamino)-4-methyl-thiazole-5-carboxylic acid (4-pyrazol-1-ylmethyl-phenyl)-amide]
187.7 to 191.5	COc1ccccc1Nc1nc(C)c(C(=O)N2CCC(c3ccc(C)cc3)CC2)s1 [Compound 168, [2-(2-methoxy-phenylamino)-4-methyl-thiazol-5-yl]-[4-p-tolyl-piperidin-1-yl]-methanone]
129.4	COc1ccccc1Nc1nc(C)c(C(=O)NC2CCCc3ccccc32)s1 (stereo not shown) [Compound 173, 2-(2-methoxy-phenylamino)-4-methyl-thiazole-5-carboxylic acid (1,2,3,4-tetrahydro-naphthalen-1-yl)-amide]
166.8 to 169.2	COc1ccccc1Nc1nc(C)c(C(=O)N2CCC(Cc3ccccc3)CC2)s1 [Compound 174, (4-benzyl-piperidin-1-yl)-[2-(2-methoxy-phenylamino)-4-methyl-thiazol-5-yl]-methanone]
92.6 to 99.6	COc1ccccc1Nc1nc(C)c(C(=O)N2CCC(C(=O)c3ccc(F)cc3)CC2)s1 [Compound 175, [4-(4-fluoro-benzoyl)-piperidin-1-yl]-[2-(2-methoxy-phenylamino)-4-methyl-thiazol-5-yl]-methanone]
113.5 to 117.6	COc1ccccc1Nc1nc(C)c(C(=O)N2CCCC2c2ccccc2)s1 (stereo not shown) [Compound 176, [2-(2-methoxy-phenylamino)-4-methyl-thiazol-5-yl]-(2-phenyl-pyrrolidin-1-yl)-methanone]
94.4 to 106.6	COc1ccccc1Nc1nc(C)c(C(=O)N2CCCC2c2ccc(F)cc2)s1 (stereo not shown) [Compound 177, [2-(4-fluoro-phenyl)-pyrrolidin-1-yl]-[2-(2-methoxy-phenylamino)-4-methyl-thiazol-5-yl]-methanone]
97.4 to 110.6	Cc1nc(NC(=O)c2ccccc2)sc1C(=O)N[C@H]1CCC[C@@H]1OCc1ccccc1 [Compound 179, 2-benzoylamino-4-methyl-thiazole-5-carboxylic acid ((1S,2S)-2-benzyloxycyclopent-1-yl) amide]
177.2 to 181.4	Cc1nc(NC(=O)c2ccc(C#N)cc2)sc1C(=O)N[C@H]1CCC[C@@H]1OCc1ccccc1 [Compound 181, 2-(4-cyano-benzoylamino)-4-methyl-thiazole-5-carboxylic acid ((1S,2S)-2-benzyloxycyclopent-1-yl) amide]
258.6 to 262.9	COc1ccccc1Nc1nc(C)c(C(=O)N[C@@H](C(=O)O)c2ccccc2)s1 [Compound 212, (R)-{[2-(2-methoxy-phenylamino)-4-methyl-thiazole-5-carbonyl]-amino}-phenyl-aceticacid]
213.8 to 218.9	Cc1nc(NC(=O)c2ccc(C(N)=O)cc2)sc1C(=O)N[C@H]1CCC[C@@H]1OCc1ccccc1 [Compound 213, N-[5-((1S,2S)-2-benzyloxy-cyclopentylcarbamoyl)-4-methyl-thiazol-2-yl]-terephthalamide]
112.6 to 121.6	COc1ccccc1Nc1nc(C)c(C(=O)NC2CCN(Cc3ccccc3)C2)s1 (stereo not shown) [Compound 215, 2-(2-methoxy-phenylamino)-4-methyl-thiazole-5-carboxylic acid (1-benzyl-pyrrolidin-3-yl) amide]
167.2 to 170	COc1ccccc1Nc1nc(C)c(C(=O)N(Cc2ccccc2)c2ccccc2)s1 [Compound 216, 2-(2-methoxy-phenylamino)-4-methyl-thiazole-5-carboxylic acid benzyl-phenyl-amide]
138.3 to 158.2	COc1ccccc1Nc1nc(C)c(C(=O)NCC2COc3ccccc3O2)s1 (stereo not shown) [Compound 217, 2-(2-methoxy-phenylamino)-4-methyl-thiazole-5-carboxylic acid (2,3-dihydro-benzo[1,4]dioxin-2-ylmethyl) amide]
143.9 to 144.8	COc1ccc(CNC(=O)c2sc(Nc3ccccc3OC)nc2C)cc1 [Compound 218, 2-(2-methoxy-phenylamino)-4-methyl-thiazole-5-carboxylic acid 4-methoxybenzylamide]
142 to 147.7	COc1ccccc1Nc1nc(C)c(C(=O)NCc2c(C)cc(Cl)cc2Cl)s1 [Compound 220, 2-(2-methoxy-phenylamino)-4-methyl-thiazole-5-carboxylic acid 2,4-dichloro-6-methyl-benzylamide]
125.9 to 130.2	COc1ccccc1Nc1nc(C)c(C(=O)NCc2ccccc2)o1 [Compound 221, 2-(2-methoxy-phenylamino)-4-methyl-oxazole-5-carboxylic acid benzylamide]
68.7 to 82.4	COc1ccc(CNC(=O)c2oc(Nc3ccccc3OC)nc2C)c(OC)c1 [Compound 222, 2-(2-methoxy-phenylamino)-4-methyl-oxazole-5-carboxylic acid 2,4-dimethoxy-benzylamide]
71.6 to 84.3	COc1ccccc1Nc1nc(C)c(C(=O)NCc2ccc(F)c(C(F)(F)F)c2)o1 [Compound 223, 2-(2-methoxy-phenylamino)-4-methyl-oxazole-5-carboxylic acid 4-fluoro-3-trifluoromethyl-benzylamide]

The next lines start with the molecule.

SMILES	melting point [°C]
COc1ccccc1Nc1nc(C)c(C(=O)NCc2ccccc2C)s1 [Compound 140, 2-(2-methoxy-phenylamino)-4-methyl-thiazole-5-carboxylic acid 2-methyl-benzylamide]	118.3 to 121.7
COc1ccccc1Nc1nc(C)c(C(=O)NCc2cccc(C)c2)s1 [Compound 141, 2-(2-methoxy-phenylamino)-4-methyl-thiazole-5-carboxylic acid 3-methyl-benzylamide]	148.1 to 149.9
COc1ccccc1Nc1nc(C)c(C(=O)NCc2ccccc2-c2ccccc2)s1 [Compound 143, 2-(2-methoxy-phenylamino)-4-methyl-thiazole-5-carboxylic acid (biphenyl-2-ylmethyl)-amide]	128.4 to 132
COc1ccccc1Nc1nc(C)c(C(=O)NCc2cccc(-c3ccccc3)c2)s1 [Compound 144, 2-(2-methoxy-phenylamino)-4-methyl-thiazole-5-carboxylic acid (biphenyl-3-ylmethyl)-amide]	126.6 to 128.3
COc1ccccc1Nc1nc(C)c(C(=O)NCc2ccc(-c3ccccc3)cc2)s1 [Compound 145, 2-(2-methoxy-phenylamino)-4-methyl-thiazole-5-carboxylic acid (biphenyl-4-ylmethyl)-amide]	189.6 to 191.2
COc1ccccc1Nc1nc(C)c(C(=O)NCc2ccccc2Br)s1 [Compound 146, 2-(2-methoxy-phenylamino)-4-methyl-thiazole-5-carboxylic acid 2-bromo-benzylamide]	159.6 to 164
COc1ccccc1Nc1nc(C)c(C(=O)NCc2cccc(Br)c2)s1 [Compound 147, 2-(2-methoxy-phenylamino)-4-methyl-thiazole-5-carboxylic acid 3-bromo-benzylamide]	161.3 to 164.1
COC[C@@H](NC(=O)c1sc(Nc2ccccc2OC)nc1C)c1ccccc1 [Compound 149, 2-(2-methoxy-phenylamino)-4-methyl-thiazole-5-carboxylic acid ((S)-2-methoxy-1-phenyl-ethyl)-amide]	118.8 to 129.6
COc1ccccc1N(C)c1nc(C)c(C(=O)N[C@H](CO)c2ccccc2)s1 [Compound 150, 2-[(2-methoxy-phenyl)-methyl-amino]-4-methyl-thiazole-5-carboxylic acid ((S)-2-hydroxy-1-phenyl-ethyl)-amide]	119.4
COC(=O)[C@H](NC(=O)c1sc(Nc2ccccc2OC)nc1C)c1ccccc1 [Compound 151, (R)-{[2-(2-methoxy-phenylamino)-4-methyl-thiazole-5-carbonyl]-amino}-phenyl-aceticacid methyl ester]	131.4 to 137.9
COC(=O)[C@@H](NC(=O)c1sc(Nc2ccccc2OC)nc1C)c1ccccc1 [Compound 152, (S)-{[2-(2-methoxy-phenylamino)-4-methyl-thiazole-5-carbonyl]-amino}-phenyl-aceticacid methyl ester]	133.5 to 135.7
Cc1nc(Nc2ccncc2)sc1C(=O)N[C@H]1CCC[C@@H]1OCc1ccccc1 [Compound 153, 4-methyl-2-(pyridin-4-ylamino)-thiazole-5-carboxylic acid ((1S,2S)-2-benzyloxycyclopent-1-yl) amide]	78.1 to 81.7
COc1ccccc1Nc1nc(C)c(C(=O)NCc2ccccc2OC(F)(F)F)s1 [Compound 157, 2-(2-methoxy-phenylamino)-4-methyl-thiazole-5-carboxylic acid 2-trifluoromethoxy-benzylamide]	76.1 to 80.2
COc1ccccc1Nc1nc(C)c(C(=O)NCc2cccc(OC(F)(F)F)c2)s1 [Compound 158, 2-(2-methoxy-phenylamino)-4-methyl-thiazole-5-carboxylic acid 3-trifluoromethoxy-benzylamide]	96.1 to 100.3
COc1ccccc1Nc1nc(C)c(C(=O)NCc2ccc(OC(F)(F)F)cc2)s1 [Compound 159, 2-(2-methoxy-phenylamino)-4-methyl-thiazole-5-carboxylic acid 4-trifluoromethoxy-benzylamide]	135.2 to 138.9
